Read-outs that look alike come from different tables or passages of the source.

A short description of data set [1]: CYP inhibition / time-dependent inhibition, CYP3A4_Midazolam. Conditions: human, liver microsomes, role: inhibitor. The data set is classed as in vitro ADME, human. An outline of the steps:
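Human liver microsomes (0.1 mg/mL) were pre-incubated 30 min at 37° C with compound (0–50.0 μM, 8 concentrations) with or without 1.0 mM NADPH, then given marker substrate (± NADPH) for an isoform-dependent time, e.g. midazolam 2.0 μM for 3 min with CYP3A. Metabolites were quantified by LC-MS/MS as analyte/IS peak area ratios.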

Another data set has as its target T1, CYP1A2 (Homo sapiens, UniProt P05177).
T1 construct: pre-incubation of the human liver microsomes with the test compound; tissue Corning; host or cells: human liver microsomes
T1 sequence (P05177 1-516): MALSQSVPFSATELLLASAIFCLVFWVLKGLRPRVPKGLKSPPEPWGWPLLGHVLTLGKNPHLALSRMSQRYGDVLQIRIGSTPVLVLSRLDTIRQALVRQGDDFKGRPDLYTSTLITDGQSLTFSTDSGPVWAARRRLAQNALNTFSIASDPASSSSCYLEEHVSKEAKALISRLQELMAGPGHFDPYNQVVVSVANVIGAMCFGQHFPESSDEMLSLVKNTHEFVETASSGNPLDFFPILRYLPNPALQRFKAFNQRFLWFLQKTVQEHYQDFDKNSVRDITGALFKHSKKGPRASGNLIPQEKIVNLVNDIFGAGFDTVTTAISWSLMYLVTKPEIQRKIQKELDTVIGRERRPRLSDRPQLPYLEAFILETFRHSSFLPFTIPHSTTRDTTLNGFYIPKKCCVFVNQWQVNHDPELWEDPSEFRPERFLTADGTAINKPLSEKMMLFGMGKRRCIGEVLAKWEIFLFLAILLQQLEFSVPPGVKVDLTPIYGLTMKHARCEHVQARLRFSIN
The data set is described as follows: CYP inhibition / time-dependent inhibition, CYP1A2_Phenacetin. It counts as in vitro ADME. Conditions: role: inhibitor. As to the method:
(§1) The time-dependent inactivation potency of the test compound to CYP enzymatic activities was assessed by the pre-incubation of the human liver microsomes with the test compound in the presence and absence of NADPH, followed by the incubation with the discrete marker substrates, as follows.
(§2) Pre-incubation with human liver microsomes (HLMs): The TDI inactivation potency on CYP enzymatic activities was evaluated through pre-incubation with HLMs (Corning). A liver microsome mixture at a concentration of 0.1 mg/mL, and the test compound at 8 different concentrations (0, 0.05, 0.165, 0.5, 1.65, 5.0, 16.5, or 50.0 μM) was warmed at 37° C. for 10 minutes. Concurrently, a set of known time-dependent inactivators was also prepared in duplicate for comparison. Following this, NADPH (1.0 mM) was added to one group (Group 1), and an equal volume of potassium phosphate buffer to the second group (Group 2), marking the beginning of a 30-minute pre-incubation at 37° C.
(§3) Incubation: After pre-incubation, the marker substrate, or marker substrate plus NADPH was added to the mixture, thereby initiating the incubation. The duration of the incubation was dependent on the type of CYP isoform being evaluated. For example, with the CYP3A isoform, the mixture was incubated over 3 minutes utilizing midazolam as the marker substrate (2.0 μM), verapamil as the standard inactivator (3.5 μM).
(§4) Termination of Reaction: Following the incubation, ice-cooled acetonitrile containing the internal standard (IS) was added to halt the reactions. Metabolites generated from the marker substrates were then measured via LC-MS/MS, assessed based on peak area ratios of the analyte to IS.

The next data set addresses T2, adrenergic β2 (Homo sapiens, UniProt P07550).
T2 construct: Eurofins DiscoverX, USA
The data set can be described thus: Functional selectivity panel, adrenergic β2. It counts as biochemical. As to the method: (§5) A broad panel of 78 recombinant targets was tested for pharmacologic activity in vitro through a variety of functional assays (Eurofins DiscoverX, USA), as part of the National Institute of Neurological Disorders and Stroke (NINDS) Preclinical Screening Platform for Pain (PSPP) program. The biological targets for the in vitro profiling have been selected based on avoiding opioid receptor stimulation and targets known to be associated with adverse events or targeted by drugs of abuse. […] For each test, a reference compound was evaluated at the target of interest as a positive control.

Another data set concerns the target T3, kappa opioid receptors (Homo sapiens, UniProt P41145).
T3 construct: Eurofins DiscoverX, USA
The data set can be described thus: Functional selectivity panel, kappa opioid receptors. The data set is classed as biochemical. The procedure:
as §5

Another data set concerns the target T4, CYP2C8 (Homo sapiens, UniProt P10632).
T4 construct: pre-incubation of the human liver microsomes with the test compound; tissue Corning; host or cells: human liver microsomes
T4 sequence (P10632 1-490): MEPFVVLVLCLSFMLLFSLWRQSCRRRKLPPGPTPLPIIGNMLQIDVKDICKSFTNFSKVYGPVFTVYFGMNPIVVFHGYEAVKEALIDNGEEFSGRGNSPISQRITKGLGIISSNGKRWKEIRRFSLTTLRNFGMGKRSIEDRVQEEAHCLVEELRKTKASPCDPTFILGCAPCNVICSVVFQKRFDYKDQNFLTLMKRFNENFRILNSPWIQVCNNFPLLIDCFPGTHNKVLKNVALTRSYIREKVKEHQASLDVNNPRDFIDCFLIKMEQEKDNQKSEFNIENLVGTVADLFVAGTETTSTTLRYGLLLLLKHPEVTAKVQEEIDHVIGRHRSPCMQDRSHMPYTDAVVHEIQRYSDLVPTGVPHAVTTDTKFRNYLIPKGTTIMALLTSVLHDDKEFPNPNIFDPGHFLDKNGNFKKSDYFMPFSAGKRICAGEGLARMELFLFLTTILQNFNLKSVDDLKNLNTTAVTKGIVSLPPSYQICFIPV
The data set can be described thus: CYP inhibition / time-dependent inhibition, CYP2C8_Amodiaquine. The data set is classed as in vitro ADME. The settings on record: role: inhibitor. As to the method:
as §1, §2, §3, §4

T2 sequence (P07550 whole entry): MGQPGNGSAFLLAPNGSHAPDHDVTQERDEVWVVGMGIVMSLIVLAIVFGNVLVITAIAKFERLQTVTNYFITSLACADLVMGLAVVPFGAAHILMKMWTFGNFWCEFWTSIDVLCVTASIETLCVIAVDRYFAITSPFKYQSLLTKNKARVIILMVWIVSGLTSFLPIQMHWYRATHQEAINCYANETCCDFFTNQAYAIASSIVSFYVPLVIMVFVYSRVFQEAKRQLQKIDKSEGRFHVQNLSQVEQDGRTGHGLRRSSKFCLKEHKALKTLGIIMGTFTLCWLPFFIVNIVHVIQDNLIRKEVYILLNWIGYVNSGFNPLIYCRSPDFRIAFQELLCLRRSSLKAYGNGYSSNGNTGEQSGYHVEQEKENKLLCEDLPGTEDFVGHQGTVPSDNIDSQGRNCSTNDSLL
T3 sequence (P41145 whole entry): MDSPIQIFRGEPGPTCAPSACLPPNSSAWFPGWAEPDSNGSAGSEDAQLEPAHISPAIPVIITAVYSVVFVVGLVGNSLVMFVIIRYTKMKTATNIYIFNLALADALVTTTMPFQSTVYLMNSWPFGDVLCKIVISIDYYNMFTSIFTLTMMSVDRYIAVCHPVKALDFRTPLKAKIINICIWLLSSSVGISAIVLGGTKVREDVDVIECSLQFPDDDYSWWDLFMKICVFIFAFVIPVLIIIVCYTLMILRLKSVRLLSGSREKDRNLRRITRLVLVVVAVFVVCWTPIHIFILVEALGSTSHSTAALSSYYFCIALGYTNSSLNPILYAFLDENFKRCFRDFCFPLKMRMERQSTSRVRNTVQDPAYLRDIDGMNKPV

`O=C(Cc1nccc(-n2cc(Cl)c3cc(Cl)cc(Cl)c32)n1)NC1COCC1O` (stereo not shown) [Compound 760]: the IC50 in data set [1] (Table 9, substrate midazolam, read-out: CYP inhibition IC50 CYP3A-Midazolam) is above 50 µM; at CYP1A2 (Table 9, read-out: CYP inhibition IC50 CYP1A2), above 50 µM; on adrenergic β2 (antagonist, read-out: IC/EC50 Adrenergic β2-antagonist), 46 µM; on CYP2C8 (Table 9, read-out: CYP inhibition IC50 CYP2C8), 49.2 µM. The “Effect on Opioid kappa” value at kappa opioid receptors (up to 10 micromolar) is “no effect”.
With `O=C(Cc1cncc(-n2cc(Cl)c3cc(Cl)cc(Cl)c32)c1)N[C@@H]1COC[C@H]1O` [Compound 661], the IC50 in data set [1] ((+)NADPH pre-incubation, substrate midazolam 2.0 μM, read-out: IC50 (+)NADPH CYP3A4_Midazolam) was 19.5 µM; in data set [1] ((−)NADPH pre-incubation, substrate midazolam 2.0 μM, read-out: IC50 (−)NADPH CYP3A4_Midazolam) it was 30.5 µM; at CYP1A2 ((+)NADPH pre-incubation, substrate phenacetin, read-out: IC50 (+)NADPH CYP1A2_Phenacetin) it was above 50 µM; at CYP1A2 ((−)NADPH pre-incubation, substrate phenacetin, read-out: IC50 (−)NADPH CYP1A2_Phenacetin) it was above 50 µM; at adrenergic β2 (read-out: adrenergic β2 IC50), 4 µM; at CYP2C8 ((+)NADPH pre-incubation, substrate amodiaquine, read-out: IC50 (+)NADPH CYP2C8_Amodiaquine), 16.5 µM. In addition, the IC50 at CYP2C8 ((−)NADPH pre-incubation, substrate amodiaquine, read-out: IC50 (−)NADPH CYP2C8_Amodiaquine) was 14.3 µM. Further, the midpoint of the response on kappa opioid receptors (PAM), the EC50, lay at 7 µM.

The values are drawn from US20260327211A1, “MODULATORS OF A POTASSIUM CHANNEL AND OF TRPV1 CHANNEL AND USES THEREOF” (Bsense Bio Therapeutics Ltd., priority 2023, published 2026).
